Results: patent publication US7407752B2, “Oligonucleotide complexes for use as anti-viral therapeutics” (priority 2003, dated 2008)
Several values for one entry are separate records, joined by “and”; a condition that tells them apart may be missing. Equal values may be shown once.

How the values were obtained:
HSV-1 = HSV-1 plaque reduction on Vero cells after incubation with TFO and ultraviolet-A radiation; details: for viral titer as percent of the unirradiated virus only control: 1 μM TFO
Protocol: Viral titers were determined by plaque counts on Vero cell monolayers.
3000 PFU/ml of HSV-1 were incubated with 1 μM TFO-3 (SEQ ID 2) at room temperature, N=5 replications per group. Viral killing (as measured by plaque-reduction) was effected by exposing the mixture to ultraviolet-A radiation for 0, 20 and 40 minutes at room temperature. HSV-1 titers were determined by plaque assay on Vero cells. […] The results were calculated as a percent of the unirradiated (0 min.) “virus only” control titers±SEM. Statistical comparisons were made between the “virus only” and “virus+TFO-3 (SEQ ID 2)” groups at each time point using an unpaired two-tailed Student's T-Test.
3000 PFU/ml of HSV-1 was incubated with 1 μM TFO-3 (SEQ ID 2) or a (scrambled) control oligonucleotide. Viral killing was affected by exposing the mixture to ultraviolet-A radiation for 40 min. Results are expressed as percent of the “virus only” control titers±SEM. Statistical comparisons were made to the “virus only” group using the two-tailed Student's T-Test.
HSV-1 was incubated with 1 μM TFO-3 (SEQ ID 2) with and without exposure to ultraviolet-A radiation for 40 minutes at room temperature. Results are expressed as mean viral titers±standard errors. Statistical comparisons were made using the two-tailed Student's T-Test.
All the groups were exposed to ultraviolet-A radiation for 40 minutes at room temperature. Results are expressed as mean viral titers ±standard error of the mean. Statistical comparisons were made using the two-tailed Mann-Whitney test for non-parametric data.

[1] = system: HSV-1 LAT target sequence duplex; experiment: Triplex formation in vitro (native polyacrylamide gel); format: binding
Protocol: The target sequence bound by TFO-3 (SEQ ID 2) yielded a relatively clean duplex when end-labeled with ^32P and allowed to anneal to its purine complement. One fmole […] [The absolute amount of target DNA was one femtomole=1×10^−15 moles placed in solution to a concentration of 1.0 nM=1.0 nanomoles/liter] of this duplex was then incubated at 37 degrees C. with increasing concentrations of the […] in a binding buffer containing 10 mM Tris, pH 7.5, 1 mM spermine, 20 mM KCl, and 10% sucrose, according to a published protocol. The DNA complexes—single-strand, double-strand, and triplex—were separated in a native polyacrylamide gel. Triplex DNA complex formation was detected at a triplex:duplex ratio of 10:1. Triplex formation was virtually complete at a triplex:duplex ratio of 100:1, corresponding to a triplex oligonucleotide concentration of 100 nM, consistent with other reports in the literature and below that believed to be achievable in vivo.

[2] = system: parent (control) reporter construct pGL3; experiment: Luciferase reporter transcription inhibition, parent construct pGL3 in HEK-293; format: cell-based, human; details: HEK-293, 1 or 10 μM TFO, 24 hours, construct lacking HSV-1 target sequence
[3] = system: HSV-1 Target-3 reporter construct C2A; experiment: Luciferase reporter transcription inhibition, construct C2A in HEK-293; format: cell-based, human; details: HEK-293, 1 or 10 μM TFO, 24 hours
TG neurons [4] = experiment: Ex vivo delivery of TFO-3 to latently infected mouse TG; details: 42 micromolar, 1.5 hrs ex vivo
Protocol: Ex vivo delivery of TFOs was then performed by incubating latently infected mouse TG ex vivo for 1.5 hrs in a 42 micromolar solution of TFO-3.

TG neurons [5] = experiment: Movement of 32P-labeled TFO-3 into rat TG neuron cultures; format: cell-based
[6] = Systemic (intraperitoneal) delivery of Cy5-TFO-3 to mouse TG, fluorescence imaging; format: in vivo, Balb/c mice; details: 167 mcg intraperitoneal, 6 or 24 hours after injection
Protocol: Cy5-labeled TFO-3 (SEQ ID 2) was then synthesized and HPLC purified. 167 mcg of Cy5-TFO-3 (SEQ ID 2) was then systemically administered via an intraperitoneal injection into uninfected and latently infected Balb/c mice. The animals were sacrificed and dissected 6 or 24 hours after injection and the TG's imaged under a red laser light source (680 nm). An uninjected, uninfected mouse was also imaged as a control for autofluorescence (nil). Fluorescence of Cy5 was detectable in the TG's of Cy5-labeled TFO-3 (SEQ ID 2) treated mice.

[7] = intravenous; cited from earlier work
[8] = Example 9, 1 μM, UVA 40 minutes
[9] = 0.5 nM starting concentration, +20 ng/ml NGF

TFO-1: purine motif triplex-forming oligonucleotide binding a target site in the HSV-1 LAT domain, SEQ ID 1 (GAAGAGGGGGGGGGGAAGAAG; DNA, backbone not given here)
antiviral effect (HSV-1; [8]): no measurable antiviral effect

TFO-3: purine motif triplex-forming oligonucleotide binding a target site in the HSV-1 LAT domain, SEQ ID 2 (GGGAGGAGGGAGGGAAGGAGGGGG; further chemistry not given here)
TFO concentration at which triplex formation is virtually complete ([1]; 37 degrees C., target duplex 1.0 nM): 100 nM | TFO concentration at which triplex formation begins ([1]; HSV-1 LAT target): 10 nM | luciferase production [2]: did not inhibit | luciferase production [3]: significantly inhibited | fluorescence in TG neurons (TG neurons [4]): Intense red fluorescence | viral titer as percent of the unirradiated virus only control (HSV-1; UVA 0 min): approximately 80% | viral titer as percent of the unirradiated virus only control (HSV-1; UVA 20 min): approximately 50% | viral titer as percent of the unirradiated virus only control (HSV-1; UVA 40 min): ~30% | percent of virus only control viral titer (HSV-1; Example 7, strain 17 syn+, 1 μM, UVA 40 min): approximately 20% | viral killing (plaque-reduction) added to that of UVA alone (HSV-1; Example 8, 1 μM, UVA 40 minutes): 40% | reduction of viral titers (HSV-1; [8]): 45% | average cellular oligonucleotide (32P) concentration (TG neurons [5]; [9]): 95 nM | average oligonucleotide (32P) concentration in the supernatants (TG neurons [5]; [9]): 0.44 nM | uptake into the neurons (TG neurons [5]; 0.5 nM, 2, 6 or 24 hours): progressively taken up

Cy5-labeled TFO-3: TFO-3 (SEQ ID 2) labeled with Cy5, HPLC purified (GGGAGGAGGGAGGGAAGGAGGGGG; DNA, backbone not given here; Cy5 label attached, triplex-forming oligonucleotide, further chemistry not fully specified)
fluorescence of Cy5 in the TG's [6]: detectable

Nc1nc2c(ncn2COCCO)c(=O)[nH]1 [Acyclovir]
steady-state trough concentration [7]: 2 μg/ml and 8 μM
